Test [1] addresses Human CB2R (Cannabinoid receptor 2) (Homo sapiens, UniProt P34972). Kind of test: CB-2 in vitro cAMP (HTRF) assay. Particulars: HEK cells, cAMP HTRF, 250 nM forskolin; mean where tested more than once; read-out: CB2 HEK_cAMP EC50. In kind it is cell-based. The procedure, abridged: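 HEK-293 cells stably expressing receptor, plated overnight at 4E5 cells/mL, tested with 1/3 serial dilutions of compound in HBSS/HEPES/BSA buffer with 0.5 mM IBMX and forskolin (diluted to 1.5 μM in buffer). cAMP measured by competitive HTRF immunoassay (d2-cAMP, cryptate anti-cAMP), signal inversely proportional to cAMP.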
Background: Time-resolved FRET reads energy transfer from a long-lived donor to a nearby acceptor.

Test [2] has as its target Human CB1R (Cannabinoid receptor 1) (Homo sapiens, UniProt P21554). In words: CB-1 in vitro cAMP (HTRF) assay. In kind it is cell-based. To be noted: cAMP HTRF, 250 nM forskolin, mean where tested more than once. The procedure, abridged:
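Intracellular cAMP from HTRF ratio (d2-cAMP vs Eu-cryptate anti-cAMP), converted to nM via per-plate standards, in stable human CB1R HEK-293 cells.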

Where [3] appears, read: HEK cells, read-out: CB1 HEK_cAMP EC50.

For 35 molecules, EC50 results are on record in patent US20190031618A1, “BENZIMIDAZOLE DERIVATIVES USEFUL AS CB-1 INVERSE AGONISTS” (Janssen Pharmaceutica NV, priority 2015, published 2019).

Each structure is given as a SMILES string. Read-outs that look alike come from different tables or passages of the source. Bounds are passed on as bounds.

For orientation: EC50 means the concentration that produces a half-maximal response.

Chain of Human CB2R (Cannabinoid receptor 2) (P34972 whole entry): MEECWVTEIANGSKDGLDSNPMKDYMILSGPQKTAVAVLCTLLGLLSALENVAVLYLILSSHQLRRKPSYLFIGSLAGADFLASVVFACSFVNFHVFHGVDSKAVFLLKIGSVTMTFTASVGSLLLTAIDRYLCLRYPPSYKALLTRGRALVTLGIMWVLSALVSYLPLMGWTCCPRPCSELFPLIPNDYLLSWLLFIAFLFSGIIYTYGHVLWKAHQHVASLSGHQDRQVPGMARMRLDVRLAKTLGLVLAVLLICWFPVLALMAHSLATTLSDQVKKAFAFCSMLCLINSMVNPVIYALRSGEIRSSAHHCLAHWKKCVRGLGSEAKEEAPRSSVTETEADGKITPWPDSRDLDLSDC
Chain of Human CB1R (Cannabinoid receptor 1) (P21554 whole entry): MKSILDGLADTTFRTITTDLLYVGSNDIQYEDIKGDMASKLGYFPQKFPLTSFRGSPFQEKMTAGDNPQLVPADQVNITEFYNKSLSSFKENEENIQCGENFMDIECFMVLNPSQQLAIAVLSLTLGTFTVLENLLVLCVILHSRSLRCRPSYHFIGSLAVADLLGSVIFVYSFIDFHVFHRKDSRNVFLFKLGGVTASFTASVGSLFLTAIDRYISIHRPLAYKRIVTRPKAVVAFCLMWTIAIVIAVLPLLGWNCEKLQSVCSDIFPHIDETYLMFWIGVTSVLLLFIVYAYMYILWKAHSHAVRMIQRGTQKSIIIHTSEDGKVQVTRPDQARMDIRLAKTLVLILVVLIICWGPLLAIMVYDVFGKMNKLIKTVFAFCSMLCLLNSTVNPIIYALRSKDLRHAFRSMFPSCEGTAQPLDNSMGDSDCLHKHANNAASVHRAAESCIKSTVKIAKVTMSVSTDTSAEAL

For the molecule `O=C(O)c1ccnc(CN2CCC(n3c(C4CC4)nc4ccc(C(c5ccc(Cl)cc5)c5ccc(Cl)cc5)cc43)CC2)c1` [Example 88], the EC50 in test [1] was more than 10000 nM; in test [2] (setting [3]), 33 nM.

On to `Oc1cccc(CN2CCC(n3c(C4CC4)nc4ccc(C(c5ccc(Cl)cc5)c5ccc(Cl)cc5)cc43)CC2)c1` [Example 90], for which the EC50 is more than 10000 nM in test [1] and 22.4 nM in test [2] (setting [3]).

Regarding `O=C(O)c1cccc(CN2CCC(n3c(C4CC4)nc4ccc(C(c5ccc(Cl)cc5)c5ccc(Cl)cc5)cc43)CC2)c1Cl` [Example 91], the EC50 in test [1] worked out at 9400 nM; in test [2] (setting [3]) it was 32.4 nM.

`O=C(O)c1cc(CN2CCC(n3c(C4CC4)nc4ccc(C(c5ccc(Cl)cc5)c5ccc(Cl)cc5)cc43)CC2)cc(C(F)(F)F)c1` [Example 93]: the results for the 50% effective concentration (EC50) in test [1] and in test [2] (setting [3]) were 1750 nM and 63.9 nM, respectively.

For `O=C(O)c1ccc(Cl)c(CN2CCC(n3c(C4CC4)nc4ccc(C(c5ccc(Cl)cc5)c5ccc(Cl)cc5)cc43)CC2)c1` [Example 94], the EC50 is 4760 nM in test [1] and 26.1 nM in test [2] (setting [3]).

Turning to `O=C(O)c1cc(CN2CCC(n3c(C4CC4)nc4ccc(C(c5ccc(Cl)cc5)c5ccc(Cl)cc5)cc43)CC2)ccc1F` [Example 95], the EC50 is more than 10000 nM in test [1] and 11.2 nM in test [2] (setting [3]).

Consider `Cc1ccc(C(c2ccc(C)cc2)c2ccc3nc(C4CC4)n(C4CCN(Cc5cccc(C(=O)O)c5)CC4)c3c2)cc1` [Example 96], for which the concentration for a half-maximal effect (EC50) came to 7920 nM in test [1] and 27.3 nM in test [2] (setting [3]).

Consider `O=C(O)c1cccc(CN2CCC(n3c(C4CC4)nc4ccc(C(c5ccc(F)cc5)c5ccc(F)cc5)cc43)CC2)c1` [Example 97], for which the values for the EC50 in test [1] and in test [2] (setting [3]) were more than 10000 nM and 18.7 nM, respectively.

As for `O=C(O)c1cccc(CN2CCC(n3c(C4CC4)nc4ccc(C(c5ccc(F)cc5)c5ccc(Cl)cc5)cc43)CC2)c1` (stereo not shown) [Example 98], the values for the EC50 in test [1] and in test [2] (setting [3]) were more than 10000 nM and 16.2 nM, respectively.

In the case of `O=C(O)c1cccc(CN2CCC(n3c(C4CC4)nc4ccc(C(c5ccc(Cl)cc5)c5ccc(C(F)(F)F)cc5)cc43)CC2)c1` (stereo not shown) [Example 99], the EC50 in test [1] is 4740 nM; in test [2] (setting [3]) it was 18.8 nM.

On to `Cc1ccc(C(c2ccc(Cl)cc2)c2ccc3nc(C4CC4)n(C4CCN(Cc5cccc(C(=O)O)c5)CC4)c3c2)cc1` (stereo not shown) [Example 100], for which the EC50 in test [1] is 6300 nM; in test [2] (setting [3]), 19.4 nM.

As for `O=C(O)c1cccc(CN2CCC(n3c(C4CC4)nc4ccc(C(c5ccccc5)c5ccc(Cl)cc5)cc43)CC2)c1` (stereo not shown) [Example 101], the EC50 is more than 10000 nM in test [1] and 28.5 nM in test [2] (setting [3]).

Take `O=C(OC[C@@H](O)[C@H](O)CO)N1CCC(n2c(C3CC3)nc3ccc(C(c4ccc(Cl)cc4)c4ccc(Cl)cc4)cc32)CC1` [Example 102]: the results for the EC50 in test [1] and in test [2] (setting [3]) were 8140 nM and 33.3 nM, respectively.

With `NC(=O)c1cccc(CN2CCC(n3c(C4CC4)nc4ccc(C(c5ccc(Cl)cc5)c5ccc(Cl)cc5)cc43)CC2)n1` [Example 104], the EC50 is 6000 nM in test [1] and 12.1 nM in test [2] (setting [3]).

For `NC(=O)c1ccc(CN2CCC(n3c(C4CC4)nc4ccc(C(c5ccc(Cl)cc5)c5ccc(Cl)cc5)cc43)CC2)cn1` [Example 105], the results for the EC50 in test [1] and in test [2] (setting [3]) were 8000 nM and 5.1 nM, respectively.

As for `O=C(O)c1ccc(CN2CCC(n3c(C4CC4)nc4ccc(C(c5ccc(Cl)cc5)c5ccc(Cl)cc5)cc43)CC2)cn1` [Example 106], the concentration for a half-maximal effect (EC50) in test [1] was more than 10000 nM; in test [2] (setting [3]), 60.1 nM.

As to `C=C(CO)c1nc2ccc(C(c3ccc(Cl)cc3)c3ccc(Cl)cc3)cc2n1C1CCN(S(=O)(=O)C(F)(F)F)CC1` [Example 118], the EC50 in test [1] was more than 10000 nM; in test [2] (setting [3]), 98 nM.

Take `Clc1ccc(C(c2ccc(Cl)cc2)c2ccc3nc(C4CC4)n(C4CCOCC4)c3c2)cc1` [Example 119]: the results for the EC50 in test [1] and in test [2] (setting [3]) were 6740 nM and 94.9 nM, respectively.

`Clc1ccc(C(c2ccc(Cl)cc2)c2ccc3nc(C4CC4)n(CC4CCOCC4)c3c2)cc1` [Example 120]: the EC50 in test [1] stood at 5430 nM; in test [2] (CB1 HEK_cAMP EC50, HEK cells) it was 24.9 nM.

Turning to `NC(=O)c1cncc(CN2CCC(n3c(C4CC4)nc4ccc(C(c5ccc(Cl)cc5)c5ccc(Cl)cc5)cc43)CC2)c1` [Example 121], the EC50 was found to be 7970 nM in test [1] and 5.1 nM in test [2] (setting [3]).

`NC(=O)c1ccc(CN2CCC(n3c(C4CC4)nc4ccc(C(c5ccc(Cl)cc5)c5ccc(Cl)cc5)cc43)CC2)nc1` [Example 122]: the EC50 in test [1] stood at 9100 nM; in test [2] (setting [3]), 4.9 nM.

For `O=C(O)c1cncc(CN2CCC(n3c(C4CC4)nc4ccc(C(c5ccc(Cl)cc5)c5ccc(Cl)cc5)cc43)CC2)c1` [Example 123], the results for the concentration giving a half-maximal response (EC50) in test [1] and in test [2] (setting [3]) were 7500 nM and 13.4 nM, respectively.

Regarding `NC(=O)c1ccc(CN2CCC(n3c(C4CC4)nc4ccc(C(c5ccc(Cl)cc5)c5ccc(Cl)cc5)cc43)CC2)s1` [Example 126], the figures for the EC50 in test [1] and in test [2] (setting [3]) were 7800 nM and 4.2 nM, respectively.

In the case of `NC(=O)c1csc(CN2CCC(n3c(C4CC4)nc4ccc(C(c5ccc(Cl)cc5)c5ccc(Cl)cc5)cc43)CC2)c1` [Example 127], the EC50 in test [1] was more than 10000 nM; in test [2] (setting [3]) it was 5 nM.

`O=C(O)c1ccc(CN2CCC(n3c(C4CC4)nc4ccc(C(c5ccc(Cl)cc5)c5ccc(Cl)cc5)cc43)CC2)s1` [Example 128]: the EC50 in test [1] is 4890 nM; in test [2] (setting [3]) it was 6.9 nM.

Regarding `O=C(O)c1csc(CN2CCC(n3c(C4CC4)nc4ccc(C(c5ccc(Cl)cc5)c5ccc(Cl)cc5)cc43)CC2)c1` [Example 130], the EC50 in test [1] was found to be 8100 nM; in test [2] (setting [3]), 15.5 nM.

Consider `NC(=O)c1ccc(CN2CCC(n3c(C4CC4)nc4ccc(C(c5ccc(Cl)cc5)c5ccc(Cl)cc5)cc43)CC2)o1` [Example 131], for which the 50% effective concentration (EC50) in test [1] was found to be 6500 nM; in test [2] (setting [3]), 8 nM.

In the case of `O=C(O)c1ccc(Cn2c(C3CC3)nc3ccc(C(c4ccc(Cl)cc4)c4ccc(Cl)cc4)cc32)cc1` [Example 132], the EC50 in test [1] and in test [2] (setting [3]) was more than 10000 nM in each case.

As for `NC(=O)c1ccc(Cn2c(C3CC3)nc3ccc(C(c4ccc(Cl)cc4)c4ccc(Cl)cc4)cc32)cc1` [Example 133], the values for the EC50 in test [1] and in test [2] (setting [3]) were 3500 nM and 812 nM, respectively.

As to `O=C(O)[C@H]1CC[C@H](n2c(C3CC3)nc3ccc(C(c4ccc(Cl)cc4)c4ccc(Cl)cc4)cc32)CC1` [Example 134], the concentration for a half-maximal effect (EC50) is more than 10000 nM in test [1] and 4340 nM in test [2] (setting [3]).

On to `NC(=O)[C@H]1CC[C@H](n2c(C3CC3)nc3ccc(C(c4ccc(Cl)cc4)c4ccc(Cl)cc4)cc32)CC1` [Example 135], for which the EC50 in test [1] was more than 10000 nM; in test [2] (setting [3]), 53.2 nM.

On to `NC(=O)[C@H]1CC[C@@H](n2c(C3CC3)nc3ccc(C(c4ccc(Cl)cc4)c4ccc(Cl)cc4)cc32)CC1` [Example 136], for which the EC50 was determined as 9100 nM in test [1] and 32 nM in test [2] (setting [3]).

On to `O=C(O)[C@H]1CC[C@@H](n2c(C3CC3)nc3ccc(C(c4ccc(Cl)cc4)c4ccc(Cl)cc4)cc32)CC1` [Example 137], for which the values for the EC50 in test [1] and in test [2] (setting [3]) were more than 10000 nM and 9000 nM, respectively.

For `NC(=O)c1ccc(CN2CCC(n3c(C4CC4)nc4ccc(C(c5ccc(Cl)cc5)c5ccc(Cl)cc5)cc43)CC2)cc1` [Example 138], the figures for the EC50 in test [1] and in test [2] (setting [3]) were 3900 nM and 13.9 nM, respectively.

Consider `NC(=O)c1cccc(CN2CCC(n3c(C4CC4)nc4ccc(C(c5ccc(Cl)cc5)c5ccc(Cl)cc5)cc43)CC2)c1` [Example 141], for which the EC50 in test [1] was more than 10000 nM; in test [2] (setting [3]), 3.3 nM.
